# Like-named read-outs stand apart in the source and are kept apart here.
# Columns and labels:
# [1] = system: poinsettia (Euphorbia heterophylla, EPHHL); assay: Greenhouse postemergence trial, % visual injury; conditions: for pest or weed control at 140 g/ha: Euphorbia heterophylla, post-emergence
# [2] = system: common rice (ORYSA); conditions: in vivo
# [3] = system: kochia (KCHSC, Kochia scoparia); assay: Greenhouse postemergence trial, % visual injury; type: in vivo
# Method: Following the protocol in Example 1, compound 1 and compound 2 were combined with 2,4 D EHE (EC) and applied to kochia (KCHSC, Kochia scoparia) and the phytotoxicity of the herbicidal compositions was measured.
# Following the protocol in Example 1, compound 1 (EC) and Compound 2 (SC) were combined with diflufenzopyr and applied to kochia (Kochia scoparia, KCHSC) and the phytotoxicity of the herbicidal composition was measured.
# [4] = system: Russian thistle (Salsola iberica, SASKR); assay: Greenhouse postemergence trial, % visual injury; type: in vivo
# [5] = system: grain sorghum (Sorghum vulgare, SORVU); assay: Greenhouse postemergence trial, % visual injury; type: in vivo
# [6] = system: wild pansy (Viola tricolor, VIOTR); assay: Greenhouse postemergence trial, % visual injury
# [7] = system: velvetleaf (Abutilon theophrasti, ABUTH); assay: Greenhouse postemergence trial, % visual injury; type: in vivo; conditions: 140 g ae/ha alone; 20-22 d
# [8] = system: common lambsquarters (CHEAL, Chenopodium album L.); assay: Greenhouse postemergence trial, % visual injury; type: in vivo; conditions: Chenopodium album, post-emergence; 140 g ae/ha alone; 20-22 d; read-out: % visual injury Obs
# [9] = system: ivyleaf morningglory (Ipomoea hederacea, IPOHE); assay: Greenhouse postemergence trial, % visual injury; conditions: Ipomoea, post-emergence, read-out: % visual injury, Obs, IPOHE, 140 g ae/ha
# [10] = system: spring rape (Brassica napus, BRSNN); assay: Greenhouse postemergence trial, % visual injury; conditions: Brassica napus, post-emergence
# [11] = system: common chickweed (Stellaria media, STEME); assay: Greenhouse postemergence trial, % visual injury; type: in vivo
# [12] = system: spring barley (HORVS); conditions: in vivo
# [13] = system: wild mustard (Sinapis arvensis, SINAR); assay: Greenhouse postemergence trial, % visual injury; type: in vivo
# [14] = system: wild buckwheat (Polygonum convolvulus, POLCO); assay: Greenhouse postemergence trial, % visual injury; type: in vivo
# [15] = system: nutsedge (Cyperus esculentus, CYPES); assay: Greenhouse postemergence trial, % visual injury; type: in vivo
# [16] = system: blackgrass (Alopecurus myosuroides, ALOMY); assay: Greenhouse postemergence trial, % visual injury; type: in vivo; conditions: 140 g ae/ha
# [17] = system: Canadian thistle (CIRAR, Cirsium arvense); assay: Greenhouse postemergence trial, % visual injury; conditions: Cirsium arvense, post-emergence;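 also: plants sprayed at second to third true leaf stage, injury scored visually 20-22 d later against solvent-blank sprayed controls, 0 meaning no injury and 100 complete kill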
# [18] = system: pigweed (AMARE, Amaranthus retroflexus); assay: Greenhouse postemergence trial, % visual injury; type: in vivo; conditions: for % visual injury, Obs: AMARE
# [19] = system: maize (ZEAMX); conditions: in vivo
# [20] = system: sunflower (Helianthus annus, HELAN); assay: Greenhouse postemergence trial, % visual injury; type: in vivo; conditions: 140 g ae/ha alone; 20-22 d
# [21] = system: winter rape (BRSNW, Brassica napus); assay: Greenhouse postemergence trial, % visual injury; type: in vivo
# [22] = system: lady's thumb (POLPE, Polygonum persicaria); assay: Small plot field trial (Canada), % visual injury; type: in vivo; conditions: 560 g ae/ha alone, 14-16 DAA
# Method: Trials were established as randomized complete blocks with 3-4 replicates. Individual plots were 2-3 meters (m) wide and 8-10 m long. Applications were made with backpack or tractor-mounted sprayers delivering a spray volume output of 100 liters per hectare (L/ha) using pressurized carbon dioxide (CO2) as a propellant. Compound 7 was combined with 2,4 D EHE (660 g ae/L EC formulation) and applied to spring wheat (TRZAS), and the phytotoxicity of the herbicidal compositions was measured. In addition, the efficacy of the herbicidal composition on Canadian thistle ([…], Cirsium arvense), […] scoparia), mallow ([…] pusilla), wild buckwheat (POLCO, Polygonum convolvulus), and lady's thumb (POLPE, Polygonum persicaria) was evaluated.
# [23] = read-out: % visual injury (Obs)
# [24] = Hordeum vulgare (spring barley)
smiles,measurement,setting,value
"CCCCC(CC)COC(=O)COc1ccc(Cl)cc1Cl (stereo not shown) [2,4-D EHE, 2-ethylhexyl (2,4-dichlorophenoxy)acetate, reference compound]",% visual injury (Obs),"[1]; 2,4-D EHE 400 g ae/ha",60%
same,pest or weed control at 140 g/ha,"[1]; read-out: % visual injury Obs, 140 g ae/ha alone, 20-22 d",35%
same,pest or weed control at 140 g/ha,"[1]; read-out: % visual injury, Obs, EPHHL, 140 g ae/ha",5%
same,% visual injury (Obs),[2],0%
same,"% visual injury, Obs",[2],10%
same,% visual injury (Obs),"[3]; 2,4-D EHE 400 g ae/ha",10%
same,% visual injury Obs,"[3]; 280 g ae/ha alone, 20-22 d",10%
same,pest or weed control at 400 g/ha,"[3]; Bassia scoparia, post-emergence, KCHSC, 400 g ae/ha, read-out: % visual injury, Obs",50%
same,% visual injury (Obs),"[4]; 2,4-D EHE 400 g ae/ha",70%
same,"% visual injury, Obs","[4]; SASKR, 400 g ae/ha",70%
same,% visual injury (Obs),"[5]; 2,4-D EHE 140 g ae/ha",0%
same,% visual injury Obs,"[5]; 140 g ae/ha alone, 20-22 d",0%
same,% visual injury (Obs),"[6]; 2,4-D EHE 140 g ae/ha",35%
same,% visual injury (Obs),"[6]; 2,4-D EHE 400 g ae/ha",65%
same,pest or weed control at 140 g/ha,"[6]; Viola tricolor, post-emergence, read-out: % visual injury Obs",35%
same,% visual injury Obs,[7],55%
same,pest or weed control at 140 g/ha,[8],73%
same,pest or weed control at 140 g/ha,[9],93%
same,plant injury at 140 g/ha,[10]; [23],60%
same,plant injury at 400 g/ha,[10]; [23],75%
same,plant injury at 140 g/ha,[10]; read-out: % visual injury Obs,60%
same,plant injury at 140 g/ha,"[10]; read-out: % visual injury, Obs",65%
same,% visual injury (Obs),"[11]; 2,4-D EHE 400 g ae/ha",10%
same,% visual injury Obs,"[11]; 140 g ae/ha alone, 20-22 d",63%
same,% visual injury (Obs),[12]; [24],0%
same,% visual injury Obs,[12]; [24],0%
same,% visual injury (Obs),[12]; spring barley (Hordeum vulgare),10%
same,% visual injury (Obs),"[13]; 2,4-D EHE 400 g ae/ha",97%
same,"% visual injury, Obs","[13]; SINAR, 400 g ae/ha",97%
same,% visual injury (Obs),"[14]; 2,4-D EHE 400 g ae/ha",80%
same,% visual injury (Obs),"[14]; 2,4-D EHE 420 g ae/ha",60%
same,% visual injury Obs,"[14]; 140 g ae/ha alone, 20-22 d",55%
same,% visual injury (Obs),"[15]; 2,4-D EHE 140 g ae/ha",0%
same,"% visual injury, Obs","[15]; CYPES, 140 g ae/ha",10%
same,pest or weed control at 140 g/ha,"[15]; Cyperus, post-emergence, 140 g ae/ha alone, 20-22 d, read-out: % visual injury Obs",0%
same,"% visual injury, Obs",[16],0%
same,pest or weed control at 140 g/ha,[17]; [23],50%
same,pest or weed control at 400 g/ha,[17]; [23],70%
same,pest or weed control at 140 g/ha,[17]; read-out: % visual injury Obs,50%
same,pest or weed control at 280 g/ha,[17]; read-out: % visual injury Obs,73%
same,"% visual injury, Obs",[18]; 140 g ae/ha,75%
same,"% visual injury, Obs",[18]; 400 g ae/ha,80%
same,pest or weed control at 140 g/ha,"[18]; Amaranthus retroflexus, post-emergence, 140 g ae/ha alone, 20-22 d, read-out: % visual injury Obs",95%
same,pest or weed control at 280 g/ha,"[18]; Amaranthus retroflexus, post-emergence, 280 g ae/ha alone, 20-22 d, read-out: % visual injury Obs",30%
same,% visual injury Obs,[19]; Zea mays (maize),0%
same,% visual injury (Obs),[19]; maize (Zea mays),0%
same,"% visual injury, Obs",[19]; maize (Zea mays),0%
same,% visual injury Obs,[20],75%
same,% visual injury (Obs),"[21]; 2,4-D EHE 400 g ae/ha",93%
same,% visual injury Obs,"[21]; 280 g ae/ha alone, 20-22 d",85%
same,"% visual injury, Obs","[21]; BRSNW, 400 g ae/ha",93%
same,% visual injury Obs,[22],55%

# Reference: patent US9521847B2, “Synergistic weed control from applications of pyridine carboxylic acid herbicides and synthetic auxin herbicides and/or auxin transport inhibitors” (Dow AgroSciences LLC, priority 2014, dated 2016)
